Measured values: patent publication US11266674B2, “Pharmaceutical composition for tumor treatment or prevention, method, and use thereof” (SICHUAN KELUN-BIOTECH BIOPHARMACEUTICAL CO., LTD., priority 2017, dated 2022)
“And” between values parts separate entries of the source, which are not always exact repeats. Equal values may be shown once.

Key:
[1] = tested on: mouse colon cancer MC38 cells expressing humanized PD-L1 (hPD-L1-MC38); experiment: In vivo efficacy on subcutaneous xenograft of mouse colon cancer hPD-L1-MC38 cells in C57BL/6J mice; settings: Day 28; compound 1.5 mg/kg p.o. every day, Tecentriq 10 mg/kg i.p. once every 2 days, combination 1.5 + 10 mg/kg
Experimental: This example aimed to evaluate the in vivo efficacy of the pharmaceutical combination of the present invention in a C57BL/6J mouse model with subcutaneous xenograft of mouse colon cancer hPD-L1-MC38 cells expressing humanized PD-L1.
(§1) hPD-L1-MC38 cells were cultured as a monolayer in vitro, and the culture conditions were 1640 culture medium supplemented with 10% Fetal Bovine Serum, and incubation in an incubator at 37° C. and 5% CO2. The cells were subcultured by treatment with routine trypsin-EDTA digestion three times a week.
0.1 mL of a PBS resuspension containing 2×10^5 hPD-L1-MC38 cells was inoculated subcutaneously at the right scapula of each mouse, and the grouping of animals was performed on the day of inoculation.
(§2) 5 g of sodium carboxymethyl cellulose was weighed and placed in a 1000 mL wide-mouth bottle, 800 mL of ultrapure water was added, and the mixture was stirred to effect a solution, the volume of which was then filled up to 1000 mL, thereby obtaining the vehicle.
(§3) An appropriate amount of the 4′-thionucleoside phosphamide derivative compound in the present invention was weighed, a certain amount of the vehicle was added, and a uniform suspension was obtained after mixing.
An appropriate amount of the hPD-L1 inhibitor (Atezolizumab, trade name: Tecentriq® purchased from Roche Corporation, WHO Pharmaceutical Information (International Nonproprietary Name for Pharmaceutical Substances), Recommended INN: List 74, Vol. 29, No. 3, 2015 (see page 387)) was taken, physiological saline was added to obtain a solution of Tecentriq® at a concentration of 1 mg/mL.
C57BL/6J mice were inoculated with hPD-L1-MC38 cells, randomized into groups (8 mice per group), and treated by administration on the same day of the inoculation. The dosing volume was 10 mL/kg (in the group treated with the drug combination, the two drugs were administered individually at an interval of 4 hours). The 4′-thionucleoside phosphamide derivative compound in the present invention was administered by oral gavage (p.o.) every day for 4 weeks, and Tecentriq was administered intraperitoneally (i.p.) once every 2 days for 4 weeks. The tumor weight was measured.
The anti-tumor effect was evaluated by the measured tumor weight, and the method of measuring tumor weight and its evaluation were the same as those described in Example 1.

[2] = tested on: human hepatoma Hep3B cells; experiment: In vivo efficacy on subcutaneous xenograft of human hepatoma Hep3B cells in NU/NU nude mice; settings: compound 1.5 mg/kg, Sorafenib 30 mg/kg, combination 1.5 + 30 mg/kg; for Tumor volume (mm^3) Day 0: Day 0, at grouping (baseline)
Experimental: (§4) This example aimed to evaluate the in vivo efficacy and tolerability of the pharmaceutical combination of the present invention in a NU/NU nude mouse model with human hepatoma Hep3B cell subcutaneous xenografts.
as §1, with “Human hepatoma Hep3B” for “hPD-L1-MC38”, “EMEM” for “1640”, “twice” for “three times”
0.2 mL of a cell suspension (PBS:Matrigel=1:1) containing 1×10^6 Hep3B was inoculated subcutaneously into the right flank of each mouse. After the inoculated tumor reached an average size in the range of 100-200 mm^3, the grouping of animals was performed.
as §2, §3
(§5) An appropriate amount of Sorafenib was weighed, and dissolved by adding polyoxyethylene castor oil. Ethanol was added and evenly mixed, followed by addition of physiological saline, thereby obtaining a uniform suspension.
(§6) Mice bearing a tumor having a volume of 100-200 mm^3 were selected, and randomized into groups (8 mice per group). The dosing volume was 10 mL/kg (in the group treated with the drug combination, the two drugs were administered individually at an interval of 4 hours), and the administration was performed by oral gavage (p.o.) every day for 20 days. The tumor volume, body weight of the animals and tumor weight were measured.
(1) The Anti-Tumor Effect was Evaluated by Measuring the Tumor Volume.
The equation for calculating the tumor volume is as follows: V=0.5a×b^2, wherein a and b respectively represent the major and minor diameters of a tumor.
RTV=Vt/V0; wherein V0 is the average tumor volume measured at the time of grouping for administration (i.e., Day 0); and Vt is the average tumor volume measured on Day t.
The anti-tumor efficacy was evaluated by tumor growth inhibition TGIvolume (%) and T/Cvolume (%). T/Cvolume (%)=TRTV/CRTV×100%; TGIvolume (%)=100%−T/Cvolume (%); wherein TRTV and CRTV are respectively RTVs of the treatment group and vehicle group at the end of the test.
TGItumor weight (%) and T/Ctumor weight (%) were calculated based on tumor weight, and were used to evaluate the tumor inhibitory effect. The equation for calculation is as follows: T/Ctumor weight(%)=WTt/WCt×100%; TGItumor weight(%)=100%−T/Ctumor weight(%);
WTt is the average tumor weight in the treatment group at the end of the test; and WCt is the average tumor weight in the vehicle group at the end of the test.
The synergism was evaluated by Jin's equation q=EA+B/(EA+EB−EA×EB), wherein EA+B represents the efficacy achieved by the combination, and EA or EB represents the efficacy achieved by individual administration. In the present invention, the efficacy indicated in the equation refers to TGI %. When q<0.85, the combination administration is considered to achieve an antagonistic effect; when q=0.85-1.15, the combination administration is considered to achieve an additive effect; and when q>1.15, the combination administration is considered to achieve a synergistic effect.

[3] = tested on: human hepatoma Hep3B-luc cells; experiment: In vivo efficacy on orthotopic liver xenograft of human hepatoma Hep3B-luc cells in BALB/c nude mice; settings: compound 1.5 mg/kg, Sorafenib 30 mg/kg, combination 1.5 + 30 mg/kg; for The average bioluminescence value of tumor (photons/sec) Day 0: Day 0, at grouping (baseline); for T/Cfluorescence (%) / T/Ctumor weight (%) / TGIfluorescence (%) / TGItumor weight (%) / The average bioluminescence value of tumor (photons/sec) Day 28 / Tumor weight: Day 28, p.o. every day
Experimental: This example aimed to evaluate the in vivo efficacy of the pharmaceutical combination of the present invention in a BALB/c nude mouse model with human hepatoma Hep3B-luc cell orthotopic xenografts.
as §1, with “Human hepatoma Hep3B-luc” for “hPD-L1-MC38”, “EMEM” for “1640”, “twice” for “three times”, “week. When cell saturation was 80-90%, the number met the requirement, and the cells were harvested and counted.” for “week.”
20 μl of the cell suspension (PBS:Matrigel=1:1) containing about 3×10^6 Hep3B-Luc cells was injected into the left lobe of the liver of BALB/c-nude mice.
as §2, §3, §5
After inoculation, the tumor growth was assessed by real-time IVIS fluorescence imaging, and mice bearing a tumor with a bioluminescence value of about 1E+8 photons/sec were selected, and randomized into groups (10 mice per group). The dosing volume was 10 mL/kg (in the group treated with the drug combination, the two drugs were administered individually at an interval of 4 hours), and the administration was performed by oral gavage (p.o.) every day for 4 weeks. The tumor volume and tumor weight were measured and recorded by IVIS bioluminescence.
The anti-tumor effect was evaluated by measuring the bioluminescence value, which reflects the tumor volume. The relative bioluminescence value (RB) was calculated by the measured average bioluminescence value, RB=Bt/B0, wherein B0 is the average bioluminescence value measured at the time of grouping for administration (i.e., Day 0); Bt is the average bioluminescence value measured on Day t. The anti-tumor efficacy was evaluated by tumor growth inhibition TGIfluorescence (%) and T/Cfluorescence (%). The equations for calculation are as follows: T/Cfluorescence(%)=TRB/CRB×100%; TGIfluorescence(%)=100%−T/Cfluorescence(%)
wherein TRB and CRB are respectively the relative fluorescence values (RB) of the treatment group and vehicle group.
The anti-tumor efficacy was evaluated by TGIfluorescence% or T/Cfluorescence%.
The anti-tumor effect was evaluated by tumor weight according to a method same as that described in Example 1.
(3) The Criteria for Determining Synergism were the Same as in Example 1.

[4] = Tolerability by body weight change of Hep3B cell tumor-bearing NU/NU nude mice; assay type: in vivo, mouse
Experimental: as §4, §6
(2) The Animal's Tolerance to a Drug was Evaluated by Animal Body Weight Change.
The method for calculating the animal body weight change (%) is as follows: (Wt−W0)/W0×100%; W0: the animal's body weight at the time of grouping for administration (i.e., Day 0); Wt: the animal's body weight on day t of the test.
Body weight change in the animals tested serve as a reference indicator for determining drug tolerance.

Compound	T/Ctumor weight (%) [1] [%]	TGItumor weight (%) [1] [%]	Tumor weight [1]	Tumor volume (mm^3) Day 0 [2] [mm^3]	T/Ctumor weight (%) ([2]; Day 20, p.o. every day)	T/Cvolume (%) ([2]; Day 20, p.o. every day)	TGItumor weight (%) ([2]; Day 20, p.o. every day)	TGIvolume (%) ([2]; Day 20, p.o. every day)	Tumor weight ([2]; Day 20, p.o. every day)	The average bioluminescence value of tumor (photons/sec) Day 0 [3] [photons/sec]	T/Cfluorescence (%) [3] [%]	T/Ctumor weight (%) [3] [%]	TGIfluorescence (%) [3] [%]	TGItumor weight (%) [3] [%]	The average bioluminescence value of tumor (photons/sec) Day 28 [3] [photons/sec]	Tumor weight [3]	weight loss ([4]; Day 20, Sorafenib 30 mg/kg p.o. every day, printed as loss) [%]	Body weight change (%) ([4]; Day 20, p.o. every day, compound 1.5 mg/kg, Sorafenib 30 mg/kg, combination 1.5 + 30 mg/kg, error range ±0.2%)	Tumor volume (mm^3) Day 20 ([2]; Day 20, p.o. every day)
CC(C)OC(=O)C(C)NP(=O)(OCC1SC(n2ccc(N)nc2=O)C(F)C1O)Oc1ccccc1 (centres unmarked)	95.16	4.84	3.54 g and 3.54 ± 0.41 g	137.67 ± 7.75	61.02	65.25	38.98	34.75	1.19 g and 1.19 ± 0.25 g	1.09E+8	103.43	77.93	−3.43	22.07	2.41E+10	3.46 g and 3.46 ± 1.17 g			
CNC(=O)c1cc(Oc2ccc(NC(=O)Nc3ccc(Cl)c(C(F)(F)F)c3)cc2)ccn1 [Sorafenib]				137.77 ± 7.92	38.97	42.86	61.03	57.14	0.76 g and 0.76 ± 0.17 g	1.09E+8	64.81	31.53	35.19	68.47	1.51E+10	1.40 g and 1.40 ± 0.82 g	8.31	−8.31	912.68 mm^3 and 912.68 ± 173.12 mm^3
Atezolizumab [Tecentriq]	73.12	26.88	2.72 g and 2.72 ± 0.44 g																
